Assay results from paper PMC12154458, “High-Throughput Screens of Repurposing Hub and DOS Chemical Libraries Reveal Compounds with Novel and Potent Inhibitory Activity Against the Essential Non-Neuronal Acetylcholinesterase of Schistosoma mansoni (SmTAChE)” (International Journal of Molecular Sciences, 2025).

Columns and labels:
rSmTAChE [1] = molecular target: T1, rSmTAChE (Schistosoma mansoni, UniProt A0A3Q0KMM5); assay: biochemical
rSmTAChE [2] = molecular target: T1, rSmTAChE; type: biochemical; conditions: for IC50: read-out: qAC50 (IC50), rSmTAChE
[3] = molecular target: recombinant human acetylcholinesterase, rHsAChE (Homo sapiens, UniProt P22303); assay: biochemical; conditions: for IC50: read-out: qAC50 (IC50), rHsAChE
Sequence of recombinant human acetylcholinesterase, rHsAChE (P22303 32-614): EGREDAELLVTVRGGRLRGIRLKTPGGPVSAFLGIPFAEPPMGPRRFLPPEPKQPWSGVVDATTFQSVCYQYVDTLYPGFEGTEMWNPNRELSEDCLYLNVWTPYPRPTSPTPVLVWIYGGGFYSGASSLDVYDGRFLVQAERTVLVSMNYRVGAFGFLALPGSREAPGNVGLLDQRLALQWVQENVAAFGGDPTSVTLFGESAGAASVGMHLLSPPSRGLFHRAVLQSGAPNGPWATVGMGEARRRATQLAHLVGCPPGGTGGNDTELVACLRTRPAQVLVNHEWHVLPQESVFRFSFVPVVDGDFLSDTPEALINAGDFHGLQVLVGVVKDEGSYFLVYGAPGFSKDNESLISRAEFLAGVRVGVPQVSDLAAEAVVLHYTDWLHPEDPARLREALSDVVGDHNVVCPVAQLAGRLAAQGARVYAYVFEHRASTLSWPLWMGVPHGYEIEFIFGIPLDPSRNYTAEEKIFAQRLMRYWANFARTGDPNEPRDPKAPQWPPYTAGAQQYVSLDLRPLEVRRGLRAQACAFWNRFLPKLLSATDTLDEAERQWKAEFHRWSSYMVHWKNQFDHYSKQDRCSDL
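For Inhibition (%) (Average) in this document: mostly 20 µM final but a few compounds at 5 or 10 µM.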
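For Inhibition (%) Replicate A in this document: mostly 20 µM final but a few compounds at 5 or 10 µM.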
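For Inhibition (%) Replicate B in this document: mostly 20 µM final but a few compounds at 5 or 10 µM.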

T1 sequence (A0A3Q0KMM5 27-661 limits assumed): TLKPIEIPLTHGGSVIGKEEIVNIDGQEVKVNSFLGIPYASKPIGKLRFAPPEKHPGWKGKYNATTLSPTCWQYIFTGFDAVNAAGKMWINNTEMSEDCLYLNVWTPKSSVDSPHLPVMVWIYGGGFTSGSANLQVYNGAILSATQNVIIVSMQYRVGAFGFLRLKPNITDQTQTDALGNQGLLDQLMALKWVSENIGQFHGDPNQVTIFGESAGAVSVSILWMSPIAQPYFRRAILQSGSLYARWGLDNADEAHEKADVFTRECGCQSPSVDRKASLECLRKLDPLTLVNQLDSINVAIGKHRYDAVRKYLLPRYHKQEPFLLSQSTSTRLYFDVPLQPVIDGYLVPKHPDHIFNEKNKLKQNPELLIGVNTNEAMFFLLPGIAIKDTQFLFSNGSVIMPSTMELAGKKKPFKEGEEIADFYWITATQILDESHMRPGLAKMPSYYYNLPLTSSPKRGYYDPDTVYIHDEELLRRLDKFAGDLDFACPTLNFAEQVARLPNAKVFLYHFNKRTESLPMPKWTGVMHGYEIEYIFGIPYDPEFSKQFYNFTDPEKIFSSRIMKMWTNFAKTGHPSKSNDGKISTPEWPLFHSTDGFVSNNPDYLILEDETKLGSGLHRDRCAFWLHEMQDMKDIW

Structure (SMILES) | Inhibition (%) (Average) (rSmTAChE [1]) | Inhibition (%) Replicate A (rSmTAChE [1]) [%] | Inhibition (%) Replicate B (rSmTAChE [1]) [%] | Data Mode (curve class), rSmTAChE (rSmTAChE [2]) | Data Mode (curve class), rHsAChE [3] | IC50 [3] [µM] | IC50 (rSmTAChE [2]) [µM] | rSmTAChE Data Mode (rSmTAChE [2]) | rHsAChE Data Mode [3]
C[C@]12CC[C@@H]3c4ccc(O)cc4C[C@@H](CCCCCCCCC[S+]([O-])CCCC(F)(F)C(F)(F)F)[C@H]3[C@@H]1CC[C@@H]2O (some centres unmarked) [BRD-A85667082-001-11-9] | 64.36 | 64.01 | 64.71 | inactive | decreasing (weakly active) | > 13.5 | – | – | –
C[C@]12CC[C@@H]3c4ccc(O)cc4C[C@@H](CCCCCCCCC[S+]([O-])CCCC(F)(F)C(F)(F)F)[C@H]3[C@@H]1CC[C@@H]2O (some centres unmarked) [BRD-A85667082-001-13-5] | 86.15 | 85.50 | 86.80 | inactive | inactive | – | – | – | –
CC(C)(C)c1ccc(CN2CCN(C(c3ccccc3)c3ccc(Cl)cc3)CC2)cc1 (centres unmarked) [BRD-A91444184-300-01-9] | 84.37 | 84.75 | 83.99 | inactive | inactive | – | – | – | –
C[C@]12CCC3c4ccc(O)cc4CCC3C1CC[C@@H]2OC(=O)CCC1CCCC1 (some centres unmarked) [BRD-A91452556-001-04-0] | 88.63 | 90.28 | 86.98 | inactive | decreasing (weakly active) | > 38 | – | – | –
COC(=O)CCSCc1ccc(-c2onc(C)c2NC(=O)OC(C)c2ccccc2Cl)cc1 (centres unmarked) [BRD-A94323479-001-02-8] | 67.17 | 60.59 | 73.75 | inactive | decreasing (weakly active) | > 38 | – | – | –
CCC(CC)C(c1ccc(Nc2nc3ccccc3s2)cc1)n1cncn1 (centres unmarked) [BRD-A95755460-001-01-3] | 71.38 | 75.72 | 67.03 | decreasing (weakly active) | inactive | – | > 38 | – | –
N#C[C@H]1[C@H](c2ccc(C#CC3CC3)cc2)[C@H](CO)N1C(=O)Cc1ccccn1 [BRD-K00124439-001-01-2] | 63.26 | 63.67 | 62.84 | – | – | – | – | decreasing (weakly active) | inactive
O=C(C[C@H]1C=C[C@H](NC(=O)c2ccncc2)[C@@H](CO)O1)Nc1ccc(-c2ccccc2)cc1 [BRD-K04695993-001-01-5] | 82.34 | 77.66 | 87.01 | – | – | – | – | inactive | inactive
O=C(NCCCCN1CCN(c2cccc(Cl)c2Cl)CC1)c1ccc2c(c1)Cc1ccccc1-2 [BRD-K05181084-003-04-5] | 62.08 | 63.93 | 60.23 | inactive | inactive | – | – | – | –
COc1ccc(NC(=O)Nc2ccc3c(c2)[C@@H]2C[C@H](CC(=O)NCc4ccccc4F)O[C@@H](CO)[C@@H]2O3)cc1 [BRD-K05329107-001-01-3] | 62.78 | 63.88 | 61.69 | – | – | – | – | inactive | decreasing (weakly active)
COC(=O)N[C@H](C(=O)N1CC2(CC2)C[C@H]1c1ncc(-c2ccc3c(c2)C(F)(F)c2cc(-c4ccc5nc([C@@H]6[C@H]7CC[C@H](C7)N6C(=O)[C@@H](NC(=O)OC)C(C)C)[nH]c5c4)ccc2-3)[nH]1)C(C)C [BRD-K05446112-001-01-8] | 66.27 | 67.15 | 65.39 | decreasing (weakly active) | inactive | – | > 38 | – | –
CCCCc1oc2ccc(NS(C)(=O)=O)cc2c1C(=O)c1ccc(OCCCN(CCCC)CCCC)cc1 [BRD-K05524748-003-04-4] | 75.77 | 74.52 | 77.02 | decreasing (weakly active) | decreasing (weakly active) | > 38 | > 38 | – | –
COC(=O)/C=C/c1cccc(N(Cc2ccc(-c3ccc(N(C)C)cc3)cc2)C(=O)C2CCCCC2)c1 [BRD-K08864679-001-02-2] | 67.27 | 71.08 | 63.46 | inactive | inactive | – | – | – | –
COc1ccc(C#Cc2ccc3c(c2)O[C@@H](CN(C)S(=O)(=O)c2ccccc2F)[C@@H](C)CN([C@@H](C)CO)S3(=O)=O)cc1 [BRD-K10241968-001-01-1] | 63.03 | 63.23 | 62.84 | – | – | – | – | inactive | inactive
Cc1c(C(=O)NN2CCCCC2)nn(-c2ccc(Cl)cc2Cl)c1-c1ccc(Cl)cc1 [BRD-K13296708-001-05-8] | 75.13 | 74.54 | 75.71 | decreasing (weakly active) | inactive | – | > 38 | – | –
CC(=O)c1cc([N+](=O)[O-])c(Sc2cccc(Cl)c2Cl)s1 [BRD-K13606314-001-01-3] | 73.95 | 72.57 | 75.33 | inactive | decreasing (weakly active) | > 38 | – | – | –
COc1ccc(C#Cc2ccc3c(c2)O[C@H](CN(C)S(=O)(=O)c2ccccc2F)[C@H](C)CN([C@H](C)CO)S3(=O)=O)cc1 [BRD-K13781734-001-02-4] | 66.73 | 61.49 | 71.97 | – | – | – | – | decreasing (weakly active) | inactive
COc1ccc(C#Cc2ccc3c(c2)O[C@H](CN(C)S(=O)(=O)c2ccccc2F)[C@@H](C)CN([C@@H](C)CO)S3(=O)=O)cc1 [BRD-K14241686-001-01-8] | 69.92 | 70.53 | 69.31 | – | – | – | – | decreasing (weakly active) | inactive
O=C(C[C@@H]1C[C@@H]2c3cc(NC(=O)NC4CCCC4)ccc3O[C@@H]2[C@H](CO)O1)NCc1ccccc1F [BRD-K14652476-001-01-0] | 84.81 | 85.09 | 84.52 | – | – | – | – | inactive | inactive
CSc1cc2c(cc1C(F)(F)F)N(C(=O)Nc1cccnc1)CC2 [BRD-K14807180-001-02-5] | 86.29 | 87.94 | 84.63 | inactive | inactive | – | – | – | –
Cc1cc(SCc2sc(-c3ccc(C(F)(F)F)cc3)nc2C)ccc1OCC(=O)O [BRD-K14880289-001-03-0] | 75.45 | 71.99 | 78.91 | decreasing | decreasing | 10.5 | 16.4 | – | –
COc1ccc(NC(=O)Nc2ccc3c(c2)[C@@H]2C[C@H](CC(=O)NCC4CC4)O[C@@H](CO)[C@@H]2O3)cc1 [BRD-K17285234-001-01-9] | 89.37 | 90.41 | 88.34 | – | – | – | – | decreasing (weakly active) | inactive
CCCCc1oc2ccccc2c1C(=O)c1cc(I)c(OCCN(CC)CC)c(I)c1 [BRD-K17561142-003-35-8] | 69.46 | 66.24 | 72.67 | decreasing (weakly active) | decreasing (weakly active) | > 38 | > 38 | – | –
C[C@H](NC(=O)C[C@H]1C[C@H]2c3cc(NC(=O)Nc4ccc(C(F)(F)F)cc4)ccc3O[C@H]2[C@H](CO)O1)c1ccccc1 [BRD-K17686770-001-01-8] | 68.45 | 70.27 | 66.63 | – | – | – | – | decreasing (weakly active) | inactive
O=C(C[C@H]1C[C@H]2c3cc(NC(=O)Nc4ccc(C(F)(F)F)cc4)ccc3O[C@H]2[C@@H](CO)O1)NC1CCCCC1 [BRD-K18925241-001-01-0] | 70.28 | 62.39 | 78.17 | – | – | – | – | decreasing (weakly active) | inactive
CC(C)(C)[S@@+]([O-])N1Cc2cc(C(=O)N3CCCCC3)nc(-c3cccc(-c4ccccc4F)c3)c2[C@H]1CCO [BRD-K19167425-001-01-6] | 62.31 | 62.60 | 62.02 | – | – | – | – | decreasing (weakly active) | inactive
CCCC[C@@H](CC)COC(=O)/C=C/c1ccc(OC)cc1 [BRD-K19972289-001-01-4] | 64.81 | 66.96 | 62.66 | inactive | decreasing | 25.7 | – | – | –
